# From patent publication US20040110771A1, “7-(r)-aminotriazolopyrimidines, the production thereof and use of the same for combatting phytopathogenic fungi” (priority 2000, published 2004)
# Experiments:
# Assay type in all cases: in vivo
# Puccinia recondita = test: Curative activity against brown rust of wheat caused by Puccinia recondita; settings: curative spray 24 h after inoculation, wheat seedlings "Kanzler", 7 days
# Description: (§1) The active compounds were prepared separately or jointly as a 10% strength emulsion in a mixture of 70% by weight of cyclohexanone, 20% by weight of Nekanil® LN (Lutensol® AP6, wetting agent having emulsifying and dispersing action based on ethoxylated alkylphenols) and 10% by weight of Wettol® EM (nonionic emulsifier based on ethoxylated castor oil) and diluted with water to the desired concentration.
# Leaves of potted wheat seedlings of the cultivar “Kanzler” were dusted with spores of brown rust (Puccinia recondita). The pots were then placed in a chamber with high atmospheric humidity (90 to 95%) at 20-22° C. for 24 hours. During this period, the spores germinated and the germinal tubes penetrated into the leaf tissue. The following day, the infected plants were sprayed to runoff point with an aqueous preparation of active compound which had been prepared from a stock solution made of 10% of active compound, 85% of cyclohexanone and 5% of emulsifier. After the spray coating had dried on, the test plants were cultivated in a greenhouse at 20-22° C. and 65-70% relative atmospheric humidity for 7 days. The extent of the rust fungus development on the leaves was then determined.
# Pyrenophora teres = test: Activity against net blotch of barley caused by Pyrenophora teres; settings: barley seedlings "Igri", inoculated 24 h after spraying, 6 days
# Description: as §1
# Leaves of potted barley seedlings of the cultivar “Igri” were sprayed to runoff point with an aqueous preparation of active compound which had been prepared from a stock solution made of 10% of active compound, 85% of cyclohexanone and 5% of emulsifier and were inoculated 24 hours after the spray coating had dried on with an aqueous spore suspension of Pyrenophora teres, the net blotch pathogen. The test plants were then placed in a greenhouse at 20-24° C. and 95-100% relative atmospheric humidity. After 6 days, the extent of the development of the disease was determined visually in % infection of the entire leaf area.
# [1] = test system: Blumeria graminis forma specialis tritici; test: Activity against mildew of wheat caused by Blumeria graminis forma specialis tritici; settings: wheat seedlings "Kanzler", dusted with spores 24 h after spraying, 7 days
# Description: as §1
# Leaves of potted wheat seedlings of the cultivar “Kanzler” were sprayed to runoff point with an aqueous preparation of active compound which had been prepared from a stock solution made of 10% of active compound, 85% of cyclohexanone and 5% of emulsifier and were dusted 24 hours after the spray coating had dried on with spores of mildew of wheat (Blumeria graminis forma specialis tritici). The test plants were then placed in a greenhouse at 20-24° C. and 60-90% relative atmospheric humidity. After 7 days, the extent of the mildew development was determined visually in % infection of the entire leaf area.
SMILES,% infection of the leaves after application of an aqueous preparation comprising . . . ppm of active compound (Puccinia recondita; 16 ppm) [%],% infection of the leaves after application of an aqueous preparation comprising . . . ppm of active compound (Puccinia recondita; 63 ppm) [%],% infection of the leaves after application of an aqueous preparation comprising . . . ppm of active compound (Puccinia recondita; 250 ppm) [%],% infection of the leaves after application of an aqueous preparation comprising . . . ppm of active compound (Pyrenophora teres; 16 ppm) [%],% infection of the leaves after application of an aqueous preparation comprising . . . ppm of active compound (Pyrenophora teres; 63 ppm) [%],% infection of the leaves after application of an aqueous preparation comprising . . . ppm of active compound (Pyrenophora teres; 250 ppm) [%],% infection of the leaves after application of an aqueous preparation comprising . . . ppm of active compound ([1]; 16 ppm) [%],% infection of the leaves after application of an aqueous preparation comprising . . . ppm of active compound ([1]; 63 ppm) [%],% infection of the leaves after application of an aqueous preparation comprising . . . ppm of active compound ([1]; 250 ppm) [%]
"Cc1cccc(F)c1-c1c(Cl)nc2ncnn2c1NC(C)C(C)C (single isomer, unassigned) [I.-11a]",80,5,5,5,0,0,7,7,5
"Cc1cccc(F)c1-c1c(Cl)nc2ncnn2c1N[C@H](C)C(C)C (single isomer, unassigned) [I.-11b]",,20,5,,15,0,,30,30
CC[C@@H](C)Nc1c(-c2c(F)cccc2Cl)c(Cl)nc2ncnn12 [I.-1],5,3,0,50,0,,,,
CCC(C)Nc1c(-c2c(C)cccc2F)c(Cl)nc2ncnn12 (stereo not shown) [I.-10],60,40,15,,3,3,,60,15
CC[C@@H](C)Nc1c(-c2c(F)cc(F)cc2F)c(Cl)nc2ncnn12 [I.-13],3,0,,20,,,60,40,
"C[C@@H](Nc1c(-c2c(F)cc(F)cc2F)c(Cl)nc2ncnn12)C(C)(C)C [I.-15, (R)-5-chloro-7-(3,3-dimethylbut-2-yl)amino-6-(2,4,6-trifluoro-phenyl)-1,2,4-triazolo[1,5-a]pyrimidine]",0,0,0,,,,7,7,3
CC[C@@H](C)Nc1c(-c2ccc(F)cc2C)c(Cl)nc2ncnn12 [I.-22],30,5,3,7,0,,5,3,3
Cc1cc(F)ccc1-c1c(Cl)nc2ncnn2c1NC(C)C(C)C (stereo not shown) [I.-23],3,0,0,0,,,15,5,3
CCCC[C@@H](C)Nc1c(-c2c(F)cc(F)cc2F)c(Cl)nc2ncnn12 [I.-27],,,40,3,0,0,,,
COCC(C)Nc1c(-c2c(F)cc(F)cc2F)c(Cl)nc2ncnn12 (stereo not shown) [I.-32],,70,15,5,0,0,,,
CC[C@H](C)Nc1c(-c2c(F)cccc2Cl)c(Cl)nc2ncnn12 [comparison (S)-amine of I.-1],60,20,15,100,20,,,,
C[C@H](Nc1c(-c2c(F)cc(F)cc2F)c(Cl)nc2ncnn12)C(C)(C)C [comparison (S)-amine of I.-15],100,100,100,,,,90,80,40
CCCC[C@H](C)Nc1c(-c2c(F)cc(F)cc2F)c(Cl)nc2ncnn12 [comparison (S)-amine of I.-27],,,100,100,90,7,,,
COC[C@H](C)Nc1c(-c2c(F)cc(F)cc2F)c(Cl)nc2ncnn12 [comparison (S)-amine of I.-32],,100,80,90,80,30,,,
